Our source for the T/C values is PubChem BioAssay AID328 (DTP/NCI, 2004).

This experiment has as its system BDF1 mice, P388 leukemia ip, median survival T/C. The experiment can be described thus: NCI In Vivo Anticancer Drug Screen. Data for tumor model P388 Leukemia (intraperitoneal) in B6D2F1 (BDF1) mice. The note with it: endpoint: median survival time, higher = longer survival. In a few lines: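 In tumour-bearing mice, survival after compound treatment is set against the vehicle group and given as a quotient.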

The mark [1] stands for this setting: dose: 200.0 mg/kg/injection, schedule: Q04DX003 (ip), vehicle: saline.
Setting [2] is: dose: 400.0 mg/kg/injection, schedule: Q04DX003 (ip), vehicle: saline.

Several values for one entry are separate records, joined by “and”; a condition that tells them apart may be missing. Equal values may be shown once. Toxic doses and inconclusive results are not listed.

For `COc1cc(C(=O)c2cocc2C(=O)c2ccc3c(c2)OCO3)cc(OC)c1OC`, the T/C runs as follows: (dose: 25.0 mg/kg/injection, schedule: Q01DX010 (ip), vehicle: saline) 108 % of control; (dose: 50.0 mg/kg/injection, schedule: Q01DX010 (ip), vehicle: other) 123 % of control; (dose: 50.0 mg/kg/injection, schedule: Q01DX010 (ip), vehicle: saline) 91 % of control; (dose: 50.0 mg/kg/injection, schedule: Q01DX010 (ip), vehicle: water) 100 % of control; (dose: 100.0 mg/kg/injection, schedule: Q01DX010 (ip), vehicle: other) 180 % of control; (dose: 100.0 mg/kg/injection, schedule: Q01DX010 (ip), vehicle: saline) 86 % of control and 100 % of control. Besides, the T/C (dose: 100.0 mg/kg/injection, schedule: Q01DX010 (ip), vehicle: water) was 111 % of control; the T/C (dose: 200.0 mg/kg/injection, schedule: Q01DX010 (ip), vehicle: other) is 165 % of control; the T/C (dose: 200.0 mg/kg/injection, schedule: Q01DX010 (ip), vehicle: saline) was 90 % of control; the T/C (dose: 200.0 mg/kg/injection, schedule: Q01DX010 (ip), vehicle: water) is 155 % of control; the T/C (dose: 400.0 mg/kg/injection, schedule: Q01DX010 (ip), vehicle: other) is 173 % of control.
Consider `O.O=c1[nH]cc(Cl)c(=O)[nH]1.[NH2-].[NH2-].[Pt+2]`, for which the T/C is 118 % of control (dose: 6.25 mg/kg/injection, schedule: Q01DX009 (ip), vehicle: water); 155 % of control (dose: 12.5 mg/kg/injection, schedule: Q01DX009 (ip), vehicle: water); 123 % of control (dose: 12.5 mg/kg/injection, schedule: Q04DX003 (ip), vehicle: water); 229 % of control and 171 % of control (dose: 25.0 mg/kg/injection, schedule: Q01DX009 (ip), vehicle: water); 166 % of control (dose: 25.0 mg/kg/injection, schedule: Q04DX003 (ip), vehicle: water); 192 % of control (dose: 50.0 mg/kg/injection, schedule: Q01DX009 (ip), vehicle: water). Moreover, for the setting “dose: 50.0 mg/kg/injection, schedule: Q04DX003 (ip), vehicle: water”, the T/C is 200 % of control.
On to `CC(CC(Sc1ccccc1)Sc1ccccc1)CC(Sc1ccccc1)Sc1ccccc1`, for which the T/C is 100 % of control (dose: 100.0 mg/kg/injection, schedule: Q04DX002 (ip), vehicle: saline with Tween-80); 92 % of control (dose: 200.0 mg/kg/injection, schedule: Q04DX002 (ip), vehicle: saline with Tween-80); 106 % of control (dose: 400.0 mg/kg/injection, schedule: Q04DX002 (ip), vehicle: saline with Tween-80).
On to `NC(=S)N/N=C\c1nccc2c(C(F)(F)C(F)(F)C(F)(F)F)cccc12`, for which the T/C (dose: 100.0 mg/kg/injection, schedule: Q04DX003 (ip), vehicle: saline with Tween-80) is 110 % of control; the T/C (dose: 200.0 mg/kg/injection, schedule: Q04DX003 (ip), vehicle: saline with Tween-80) was 98 % of control; the T/C (dose: 400.0 mg/kg/injection, schedule: Q04DX003 (ip), vehicle: saline with Tween-80) was 88 % of control.
Turning to `O=C1C=C(Cl)C(=O)C(Cl)=C1`, the T/C by setting is: (dose: 3.0 mg/kg/injection, schedule: Q01DX009 (ip), vehicle: Klucel (hydroxypropylcellulose) (HPC)) 100 % of control; (dose: 6.0 mg/kg/injection, schedule: Q01DX009 (ip), vehicle: Klucel (hydroxypropylcellulose) (HPC)) 87 % of control; (dose: 6.25 mg/kg/injection, schedule: Q04DX003 (ip), vehicle: Klucel (hydroxypropylcellulose) (HPC)) 95 % of control; (dose: 12.5 mg/kg/injection, schedule: Q04DX003 (ip), vehicle: Klucel (hydroxypropylcellulose) (HPC)) 100 % of control.
Consider `N#Cc1nc(C#N)c(Sc2ccccc2)c(Sc2ccccc2)c1Sc1ccccc1`, for which the T/C was 101 % of control and 110 % of control (dose: 12.5 mg/kg/injection, schedule: Q01DX009 (ip), vehicle: saline with Tween-80); 100 % of control and 103 % of control (dose: 25.0 mg/kg/injection, schedule: Q01DX009 (ip), vehicle: saline with Tween-80); 121 % of control and 122 % of control (dose: 50.0 mg/kg/injection, schedule: Q01DX009 (ip), vehicle: saline with Tween-80).
Take `COc1ccc(CN(C(C)=O)c2cc(C)c([N+](=O)[O-])cc2OC)cc1OC`: the T/C reads like this: (dose: 25.0 mg/kg/injection, schedule: Q01DX009 (ip), vehicle: saline) 103 % of control; (dose: 25.0 mg/kg/injection, schedule: Q04DX003 (ip), vehicle: saline) 87 % of control and 107 % of control; (dose: 50.0 mg/kg/injection, schedule: Q01DX009 (ip), vehicle: saline) 87 % of control; (dose: 50.0 mg/kg/injection, schedule: Q04DX003 (ip), vehicle: saline) 88 % of control and 107 % of control; (dose: 100.0 mg/kg/injection, schedule: Q01DX009 (ip), vehicle: saline) 111 % of control; (dose: 150.0 mg/kg/injection, schedule: Q04DX003 (ip), vehicle: saline) 106 % of control. For the same compound, the T/C reads like this: (dose: 200.0 mg/kg/injection, schedule: Q01DX009 (ip), vehicle: saline) 108 % of control; under setting [1], 99 % of control and 107 % of control; (dose: 300.0 mg/kg/injection, schedule: Q04DX003 (ip), vehicle: saline) 114 % of control; (dose: 400.0 mg/kg/injection, schedule: Q01DX009 (ip), vehicle: saline) 100 % of control; under setting [2], 100 % of control.
For the compound `Nc1[nH]c(=S)[nH]c(=O)c1NC(=O)C1CC1`, the T/C (dose: 100.0 mg/kg/injection, schedule: Q01DX009 (ip), vehicle: saline with Tween-80) is 100 % of control; the T/C (dose: 100.0 mg/kg/injection, schedule: Q04DX003 (ip), vehicle: saline) was 104 % of control; the T/C (dose: 200.0 mg/kg/injection, schedule: Q01DX009 (ip), vehicle: saline with Tween-80) was 100 % of control; the T/C under setting [1] was 104 % of control; the T/C (dose: 400.0 mg/kg/injection, schedule: Q01DX009 (ip), vehicle: saline with Tween-80) is 100 % of control; the T/C under setting [2] was 100 % of control.
